According to ChEMBL document CHEMBL1201862, “PubChem BioAssay data set” (2004):
Active and inactive are the calls of the source.

Tests used:
NADPH oxidase 1 = biological target: T1, NADPH oxidase 1 (Homo sapiens, UniProt Q9Y5S8); type: functional, cell-based;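 further: Cell-based assay with luminescence read-out, IC50 derived from inhibitor dose-response curves; intracellular ROS from endogenous NOX1 in intact HT29 colon cancer cells; potency of inhibitors that lower the ROS luminescence signal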
T1 sequence (Q9Y5S8 whole entry): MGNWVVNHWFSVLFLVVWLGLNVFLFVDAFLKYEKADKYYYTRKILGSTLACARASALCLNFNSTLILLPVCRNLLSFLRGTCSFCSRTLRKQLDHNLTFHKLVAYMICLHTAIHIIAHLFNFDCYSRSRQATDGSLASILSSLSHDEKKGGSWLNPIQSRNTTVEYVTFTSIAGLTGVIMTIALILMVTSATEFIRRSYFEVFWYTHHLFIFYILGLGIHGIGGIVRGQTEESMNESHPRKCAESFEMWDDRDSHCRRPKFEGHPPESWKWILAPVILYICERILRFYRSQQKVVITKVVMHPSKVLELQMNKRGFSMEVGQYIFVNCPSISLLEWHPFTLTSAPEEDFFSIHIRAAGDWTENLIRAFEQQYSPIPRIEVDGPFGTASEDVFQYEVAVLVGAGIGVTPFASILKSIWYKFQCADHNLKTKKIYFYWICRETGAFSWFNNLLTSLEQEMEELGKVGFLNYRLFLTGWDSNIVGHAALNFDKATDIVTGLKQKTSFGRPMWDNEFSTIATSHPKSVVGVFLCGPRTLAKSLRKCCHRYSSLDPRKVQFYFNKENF

[1] = inhibitors of intracellular T. cruzi replication, confirmation, NIH3T3 host cells, beta-gal luminescence (AID 2044); type: functional, cell-based;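 further: intracellular parasites grown in NIH/3T3 mouse fibroblasts as host cells; luminescent beta-galactosidase reporter signal from transgenic T. cruzi replicating inside host cells; inhibitors lower the luminescence signal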
[2] = cytotoxicity toward NIH3T3 fibroblasts, dose response, counter-screen, cell-based, ATP luminescence, mouse fibroblasts (AID 2010); type: functional;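 further: cells exposed to compound for about 90 hours before reading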
[3] = biological target: T2, Alkaline phosphatase, tissue-nonspecific isozyme (Homo sapiens, UniProt P05186); experiment: human TNAP enzyme inhibitors, SAR follow-up, biochemical, luminescent, dose response (AID 1056)
T2 sequence (P05186 whole entry): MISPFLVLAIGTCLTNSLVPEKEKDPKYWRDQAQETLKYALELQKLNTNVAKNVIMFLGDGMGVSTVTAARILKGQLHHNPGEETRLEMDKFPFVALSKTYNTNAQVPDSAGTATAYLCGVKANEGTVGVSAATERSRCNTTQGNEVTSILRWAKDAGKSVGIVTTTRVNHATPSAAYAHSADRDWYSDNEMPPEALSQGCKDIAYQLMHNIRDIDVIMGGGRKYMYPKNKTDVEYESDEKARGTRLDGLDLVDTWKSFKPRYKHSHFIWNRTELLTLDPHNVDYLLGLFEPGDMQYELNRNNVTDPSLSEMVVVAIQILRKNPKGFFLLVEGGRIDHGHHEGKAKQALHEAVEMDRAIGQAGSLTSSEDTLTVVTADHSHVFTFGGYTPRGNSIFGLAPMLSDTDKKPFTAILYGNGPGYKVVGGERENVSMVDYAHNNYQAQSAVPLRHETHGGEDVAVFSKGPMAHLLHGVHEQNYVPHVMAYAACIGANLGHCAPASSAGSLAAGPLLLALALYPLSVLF

[4] = THP-1 cell cytotoxicity, dose response, cytotoxicity control for Vif-APOBEC3G degradation inhibitor project, THP-1 cells (AID 1117359); type: functional; conditions: Human immunodeficiency virus 1, THP-1
[5] = biological target: Glyceraldehyde-3-phosphate dehydrogenase (Homo sapiens, UniProt P04406)
[6] = cytotoxicity in HEK-293T cells, dose response, cytotoxicity control for BCR NF-kB inhibitor project, luminescence, B-cell screen hits (AID 489021); type: functional, cell-based;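 further: HEK-293T cells carrying an NF-kB luciferase reporter; cells exposed to compound for about 14 hours before viability readout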
[7] = biological target: DNA dC->dU-editing enzyme APOBEC-3G (Homo sapiens, UniProt Q9HC16); experiment: Dose Response confirmation of small molecule APOBEC3G DNA Deaminase Inhibitors via a fluorescence-based single-stranded DNA deaminase assay. [Related pubchem assays (depositor defined):AID493012, AID493028]; type: functional
[8] = cytotoxicity in HPDE-C7 cells, cell-based, fluorescence, HTS (AID 430); type: functional; conditions: Homo sapiens
[9] = cytotoxicity in KRAS-transformed pancreatic duct cells, primary screen, cell-based, fluorescence, HTS (AID 431); type: functional; conditions: Homo sapiens;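 further: cell line used: HPDE-C7K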
[10] = biological target: T3, Rac GTPase-activating protein 1 (Homo sapiens, UniProt Q9H0H5); experiment: MgcRacGAP GTPase-activating activity inhibitors, confirmation, biochemical, ADP Hunter fluorescence, primary and confirmatory (AID 624330); type: functional
T3 sequence (Q9H0H5 whole entry): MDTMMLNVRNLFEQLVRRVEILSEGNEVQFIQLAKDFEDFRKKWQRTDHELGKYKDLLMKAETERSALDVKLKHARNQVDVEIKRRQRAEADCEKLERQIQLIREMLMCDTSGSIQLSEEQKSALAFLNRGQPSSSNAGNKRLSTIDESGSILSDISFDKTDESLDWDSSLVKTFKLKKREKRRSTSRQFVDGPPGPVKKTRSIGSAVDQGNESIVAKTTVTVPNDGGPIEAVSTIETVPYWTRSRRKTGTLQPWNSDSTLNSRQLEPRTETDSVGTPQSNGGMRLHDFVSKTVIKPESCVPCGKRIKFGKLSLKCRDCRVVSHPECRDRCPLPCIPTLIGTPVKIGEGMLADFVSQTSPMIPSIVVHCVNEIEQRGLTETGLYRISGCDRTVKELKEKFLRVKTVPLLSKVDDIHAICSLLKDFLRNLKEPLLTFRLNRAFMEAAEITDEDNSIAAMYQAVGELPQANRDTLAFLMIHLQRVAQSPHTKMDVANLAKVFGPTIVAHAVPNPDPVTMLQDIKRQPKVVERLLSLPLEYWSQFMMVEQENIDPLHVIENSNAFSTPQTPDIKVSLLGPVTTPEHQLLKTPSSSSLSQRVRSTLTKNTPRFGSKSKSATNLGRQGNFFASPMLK

Nonstructural protein 1 = Nonstructural protein 1 (Influenza A virus, UniProt Q194T2); type: functional, Influenza A virus (A/California/07/2009(H1N1))
[11] = HepG2 cell cytotoxicity, dose response, cytotoxicity control, cherry-picked samples (AID 1159577); type: functional, cell-based
[12] = P. falciparum Dd2 growth inhibitors, dose response, SYBR Green, cherry-picked samples (AID 1159567); type: functional, cell-based
[13] = P. falciparum Dd2 growth inhibitors, dose response, SYBR Green, dry powder samples (AID 1159566); type: functional, cell-based;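 further: potency for growth inhibition with lower SYBR green DNA signal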
[14] = P. falciparum ATP4 D1247Y mutant growth inhibitors, dose response, NITD609-resistant line, SYBR Green, dry powder (AID 1159571); type: functional, cell-based;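 further: parasites synchronized at ring stage by sorbitol before testing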
[15] = HepG2 cell cytotoxicity, dose response, cytotoxicity control, plate reader, dry powder samples (AID 1159569); type: functional, cell-based;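 further: inhibitor potency with signal falling toward the positive control level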
[16] = P. falciparum 3D7-ScDHODH growth inhibitors, dose response, SYBR Green, dry powder samples (AID 1159570); type: functional, cell-based;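 further: parasite growth measured after 72 hours of compound exposure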

Chain of Glyceraldehyde-3-phosphate dehydrogenase (P04406 whole entry): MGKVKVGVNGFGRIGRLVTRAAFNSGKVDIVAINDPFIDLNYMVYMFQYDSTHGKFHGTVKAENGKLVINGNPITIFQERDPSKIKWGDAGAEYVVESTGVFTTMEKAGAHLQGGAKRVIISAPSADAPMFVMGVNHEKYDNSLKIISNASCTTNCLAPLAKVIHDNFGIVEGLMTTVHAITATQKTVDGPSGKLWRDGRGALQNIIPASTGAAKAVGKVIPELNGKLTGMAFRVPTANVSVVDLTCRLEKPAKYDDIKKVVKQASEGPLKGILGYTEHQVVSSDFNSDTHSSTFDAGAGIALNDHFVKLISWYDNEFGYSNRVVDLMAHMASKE
Chain of Nonstructural protein 1 (Q194T2 whole entry): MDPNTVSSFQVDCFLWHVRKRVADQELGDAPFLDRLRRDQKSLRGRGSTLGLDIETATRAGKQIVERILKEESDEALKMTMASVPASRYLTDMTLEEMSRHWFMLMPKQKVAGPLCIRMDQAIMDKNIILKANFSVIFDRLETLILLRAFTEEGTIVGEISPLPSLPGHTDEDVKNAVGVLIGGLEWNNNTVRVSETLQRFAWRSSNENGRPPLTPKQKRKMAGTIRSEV
Chain of DNA dC->dU-editing enzyme APOBEC-3G (Q9HC16 whole entry): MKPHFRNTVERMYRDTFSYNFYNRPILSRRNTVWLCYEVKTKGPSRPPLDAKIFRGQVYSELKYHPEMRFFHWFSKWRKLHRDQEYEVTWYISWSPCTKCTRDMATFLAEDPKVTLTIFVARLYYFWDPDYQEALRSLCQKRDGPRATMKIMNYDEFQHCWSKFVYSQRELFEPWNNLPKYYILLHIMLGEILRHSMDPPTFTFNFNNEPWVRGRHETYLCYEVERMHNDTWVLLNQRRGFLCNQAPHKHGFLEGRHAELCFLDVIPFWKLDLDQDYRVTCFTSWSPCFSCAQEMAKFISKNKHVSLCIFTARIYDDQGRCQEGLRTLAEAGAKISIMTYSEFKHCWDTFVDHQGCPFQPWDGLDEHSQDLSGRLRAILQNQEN

Compound: O=[N+]([O-])c1cccc(/C=N/Nc2c(Cl)cncc2Cl)c1
- IC50 (NADPH oxidase 1): > 17 µM (not active)

Compound: O=C(O)c1nc(Cl)c(Cl)c(N/N=C/c2ccc(N3CCOCC3)c([N+](=O)[O-])c2)c1Cl
- IC50 (NADPH oxidase 1): > 17 µM (not active)

Compound: COc1ccc(-c2nc(CN3CCN(Cc4cccc(Cl)c4)CC3)c(C)o2)cc1
- EC50 (cells): 0.377 µM (active)
- EC50 [1]: < 0.1 µM (active)
- EC50 [2]: > 60 µM (not active)

Compound: COc1ccc(OC)c(S(=O)(=O)Nc2ccc(O)c3ccccc23)c1
- IC50 [3]: > 100 µM (inactive)
- CC50 [4]: 12.8 µM (active)
- IC50 [5]: > 100 µM (not active)

Compound: CCOc1ccc(-c2cc(CCCC(=O)NCc3ccc(C)cc3)no2)cc1
- IC50 [6]: > 80 µM (inactive)

Compound: O=C(Oc1cccc2ccccc12)c1sc2ccccc2c1Cl
- IC50 (NADPH oxidase 1): > 17 µM (not active)

Compound: O=C(Oc1ccccc1F)c1sc2ccccc2c1Cl
- IC50 (NADPH oxidase 1): > 17 µM (not active)

Compound: COc1ccc(O)c(C(=O)C2c3ccccc3C(=O)N2c2ccc(C)cc2)c1 (stereo unspecified)
- IC50 [7]: 37.4 µM (active)
- CC50 [4]: > 40 µM (active)

Compound: CCc1c(C)nc2cc(-c3cc(OC)cc(OC)c3)nn2c1N1CCCC1
- EC50 [8]: 10.5 µM (active)
- EC50 [9]: 13 µM (active)

Compound: COc1ccc(CN2CCCC(CNC(=O)c3ccc(F)cc3)C2)c(C)c1C (stereo unspecified)
- EC50 (cells): 0.09 µM (active)
- EC50 [1]: < 0.1 µM (active)
- EC50 [2]: > 30 µM (not active)

Compound: Cc1cc(N(C)C)ccc1N=Nc1ccc(N)cc1
- IC50 [10]: 29.3 µM (active)
- IC50 [6]: > 80 µM (inactive)
- IC50 (Nonstructural protein 1): 21.4 µM (active)

Compound: Cc1ccc([C@H]2C(C(=O)O)=CC[C@@H](c3cccc(Cl)c3)N2S(=O)(=O)c2ccc(C)cc2)cc1
- CC50 [4]: > 40 µM (active)

Compound: N#C[C@H]1[C@H](c2ccc(-c3ccccc3)cc2)[C@H](CO)N1C(=O)Cc1ccncc1
- AC50 [11]: > 36 µM (inactive)
- AC50 [12]: 3.05 µM (active)

Compound: COc1ccccc1C#Cc1ccc([C@H]2[C@@H](C#N)N(C(=O)C3CCC3)[C@H]2CO)cc1
- AC50 [13]: 0.51 µM (active)
- AC50 [14]: 0.795 µM (active)
- AC50 [11]: > 42 µM (inactive)
- AC50 [15]: 37.3 µM (active)
- AC50 [16]: 1.16 µM (active)
- AC50 [12]: 1.36 µM (active)

Compound: CO[C@@H]1CN(C)C(=O)c2cc(NC(=O)c3ccc(-c4ccccc4)cc3)ccc2OC[C@@H](C)NC[C@@H]1C
- AC50 [11]: 14.2 µM (active)
- AC50 [12]: 7.25 µM (active)

Compound: COc1ccc2c3c(n(C)c2c1)[C@@H](CO)NCC31CCN(Cc2ccccc2Cl)CC1
- AC50 [11]: 18.3 µM (active)
- AC50 [12]: 2.44 µM (active)

Compound: COc1ccc(C(=O)CC(=O)O)c2c1C=CC(C)(C)O2 [URSINOIC ACID]
- EC50 [8]: > 20 µM (not active)
- EC50 [9]: > 20 µM (not active)
